# Laboratory results reported in patent US20240140957A1, “BRIDGED COMPOUNDS AS KRAS G12D INHIBITOR AND DEGRADER AND THE USE THEREOF” (BeiGene Switzerland GmbH, priority 2021, published 2024).
# Target: GDP-loaded KRAS G12D (Homo sapiens, UniProt P01116, G12D)
# Experiment: KRAS G12D Probe Displacement Assay
# Format: binding
# Conditions: KRAS G12D 0.5 nM, biotinylated probe 2 4 nM; Table 6 letters; read-out: KRAS G12D Probe Displacement Assay IC50 (class)
# GDP-loaded KRAS G12D, sequence (P01116 1-188 isoform P01116-2 G12D): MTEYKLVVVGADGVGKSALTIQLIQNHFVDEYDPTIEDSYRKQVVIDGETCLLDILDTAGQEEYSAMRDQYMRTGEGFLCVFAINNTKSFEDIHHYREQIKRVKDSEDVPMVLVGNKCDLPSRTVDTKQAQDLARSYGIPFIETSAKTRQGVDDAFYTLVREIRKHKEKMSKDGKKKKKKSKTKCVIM
row,SMILES,IC50
1,"N#CC1(COc2nc(N3CC4CCC(C3)N4)c3cc(C(F)(F)F)c(-c4ccc(F)c5sc(N)nc45)c(F)c3n2)CCCCC1 [Example E157, 1-(((7-(2-amino-7-fluorobenzo[d]thiazol-4-yl)-4-(3,8-diazabicyclo [3.2.1]octan-3-yl)-8-fluoro-6-(trifluoromethyl)quinazolin-2-yl)oxy)methyl)cyclohexane-1-carbonitrile]",< 50 nM
2,"Nc1nc2c(-c3c(C(F)(F)F)cc4c(N5CC6CCC(C5)N6)nc(OCCc5cccnc5)nc4c3F)ccc(F)c2s1 [Example E184, 4-(4-(3,8-diazabicyclo[3.2.1]octan-3-yl)-8-fluoro-2-(2-(pyridin-3-yl)ethoxy)-6-(trifluoromethyl)quinazolin-7-yl)-7-fluorobenzo [d]thiazol-2-amine]",< 50 nM
3,"N#Cc1c(N)sc2c(F)ccc(-c3c(C(F)(F)F)cc4c(N5CC6CCC(C5)N6)nc(OC[C@@]56CCCN5C[C@H](F)C6)nc4c3F)c12 [Example E104, 4-(4-(3,8-diazabicyclo[3.2.1]octan-3-yl)-8-fluoro-2-(((2R,7aS)-2-fluorotetrahydro-1H-pyrrolizin-7a(5H)-yl)methoxy)-6-(trifluoromethyl)quinazolin-7-yl)-2-amino-7-fluorobenzo[b]thiophene-3-carbonitrile]",< 50 nM
4,"Nc1nc2c(-c3cc4nc(OC[C@@]56CCCN5C[C@H](F)C6)nc(N5CC6CCC(C5)N6)c4cc3C(F)(F)F)ccc(F)c2s1 [Example E128, 4-(4-(3,8-diazabicyclo[3.2.1]octan-3-yl)-2-(((2R,7aS)-2-fluorotetra hydro-1H-pyrrolizin-7a(5H)-yl)methoxy)-6-(trifluoromethyl)quinazolin-7-yl)-7-fluorobenzo[d] thiazol-2-amine]",< 50 nM
5,"Nc1nc2c(-c3c(C(F)(F)F)cc4c(N5CC6CCC(C5)N6)nc(OCC56CCC(CC5)OC6)nc4c3F)ccc(F)c2s1 [Example E165, 4-(2-((2-oxabicyclo[2.2.2]octan-4-yl)methoxy)-4-(3,8-diazabicyclo[3.2.1]octan-3-yl)-8-fluoro-6-(trifluoromethyl)quinazolin-7-yl)-7-fluorobenzo[d]thiazol-2-amine]",< 50 nM
6,"COCC1CCC2(COc3nc(N4CC5CCC(C4)N5)c4cc(C(F)(F)F)c(-c5ccc(F)c6sc(N)nc56)c(F)c4n3)CCCN12 (stereo not shown) [Example E131, 4-(4-(3,8-diazabicyclo[3.2.1]octan-3-yl)-8-fluoro-2-((3-(methoxymethyl)tetrahydro-1H-pyrrolizin-7a(5H)-yl)methoxy)-6-(trifluoromethyl)quinazolin-7-yl)-7-fluorobenzo[d]thiazol-2-amine]",< 50 nM
7,Nc1nc2c(-c3c(C(F)(F)F)cc4c(N5CC6CCC(C5)N6)nc(OC5CCS(=O)(=O)CC5)nc4c3F)ccc(F)c2s1 [Example E160],< 50 nM
8,"Nc1cc(Cl)c(C(F)(F)F)c(-c2c(Cl)cc3c(N4C5CNCC4COC5)nc(OC[C@@]45CCCN4C[C@H](F)C5)nc3c2F)n1 [Example E107, 6-(4-(3-oxa-7,9-diazabicyclo[3.3.1]nonan-9-yl)-6-chloro-8-fluoro-2-(((2R,7aS)-2-fluorotetrahydro-1H-pyrrolizin-7a(5H)-yl)methoxy)quinazolin-7-yl)-4-chloro-5-(trifluoromethyl)pyridin-2-amine]",< 50 nM
9,"Nc1nc2c(-c3c(C(F)(F)F)cc4c(N5CC6CCC(C5)N6)nc(OC5CS(=O)(=O)C5)nc4c3F)ccc(F)c2s1 [Example E148, 3-((7-(2-amino-7-fluorobenzo[d]thiazol-4-yl)-4-(3,8-diazabicyclo [3.2.1]octan-3-yl)-8-fluoro-6-(trifluoromethyl)quinazolin-2-yl)oxy)thietane 1,1-dioxide]",< 50 nM
10,"CC1(COc2nc(N3CC4CCC(C3)N4)c3cc(C(F)(F)F)c(-c4ccc(F)c5sc(N)nc45)c(F)c3n2)CCOCC1 [Example E182, 4-(4-(3,8-diazabicyclo[3.2.1]octan-3-yl)-8-fluoro-2-((4-methyltetra hydro-2H-pyran-4-yl)methoxy)-6-(trifluoromethyl)quinazolin-7-yl)-7-fluorobenzo[d]thiazol-2-amine]",< 50 nM
11,"Nc1nc2c(-c3c(C4CC4(F)F)cc4c(N5CC6CCC(C5)N6)nc(OC[C@@]56CCCN5C[C@H](F)C6)nc4c3F)ccc(F)c2s1 (stereo partly shown) [Example E91, 4-(4-(3,8-diazabicyclo[3.2.1]octan-3-yl)-6-(2,2-difluorocyclopropyl)-8-fluoro-2-((2-fluorotetrahydro-1H-pyrrolizin-7a(5H)-yl)methoxy)quinazolin-7-yl)-7-fluorobenzo[d]thiazol-2-amine]",< 50 nM
12,"Nc1nc2c(-c3c(C(F)(F)F)cc4c(N5C6CCC5CNC6)nc(OC[C@@]56CCCN5C[C@H](F)C6)nc4c3Cl)ccc(F)c2s1 [Example E101, 4-(4-(3,8-diazabicyclo[3.2.1]octan-8-yl)-8-chloro-2-(((2R,7aS)-2-fluorotetrahydro-1H-pyrrolizin-7a(5H)-yl)methoxy)-6-(trifluoromethyl)quinazolin-7-yl)-7-fluorobenzo[d]thiazol-2-amine]",< 50 nM
13,"Nc1nc2c(-c3c(C(F)(F)F)cc4c(N5C6CNCC5C6)nc(OC[C@@]56CCCN5C[C@H](F)C6)nc4c3F)ccc(F)c2s1 [Example E127, 4-(4-(3,6-diazabicyclo[3.1.1]heptan-6-yl)-8-fluoro-2-(((2R,7aS)-2-fluorotetrahydro-1H-pyrrolizin-7a(5H)-yl)methoxy)-6-(trifluoromethyl)quinazolin-7-yl)-7-fluoro benzo[d]thiazol-2-amine]",< 50 nM
14,"Nc1nc2c(-c3c(C(F)(F)F)cc4c(N5CC6CCC(C5)N6)nc(OCC5(CO)CCCC5)nc4c3F)ccc(F)c2s1 [Example E190, (1-(((7-(2-amino-7-fluorobenzo[d]thiazol-4-yl)-4-(3,8-diazabicyclo[3.2.1]octan-3-yl)-8-fluoro-6-(trifluoromethyl)quinazolin-2-yl)oxy)methyl)cyclopentyl)methanol]",< 50 nM

# More lines, now with the values ahead:
row,IC50,SMILES
1,< 50 nM,"Nc1nc2c(-c3c(C(F)(F)F)cc4c(N5CC6CCC(C5)N6)nc(OCC56COCC5C6)nc4c3F)ccc(F)c2s1 (stereo not shown) [Example E217, 4-(2-((3-oxabicyclo[3.1.0]hexan-1-yl)methoxy)-4-(3,8-diazabicyclo[3.2.1]octan-3-yl)-8-fluoro-6-(trifluoromethyl)quinazolin-7-yl)-7-fluorobenzo[d]thiazol-2-amine]"
2,50 to 100 nM,"Cc1cc(N)nc(-c2c(Cl)cc3c(N4CC5CCC(C4)N5)nc(OCC4(C#N)CCCC4)nc3c2F)c1C(F)(F)F [Example E199, 1-(((7-(6-amino-4-methyl-3-(trifluoromethyl)pyridin-2-yl)-4-(3,8-diazabicyclo[3.2.1]octan-3-yl)-6-chloro-8-fluoroquinazolin-2-yl)oxy)methyl)cyclopentane-1-carbonitrile]"
3,100 to 1000 nM,"Cc1cc(N)nc(-c2c(Cl)cc3c(N4CC5CCC(C4)N5)nc(OCC4C5COCC54)nc3c2F)c1C(F)(F)F (stereo not shown) [Example E231, 6-(2-((3-oxabicyclo[3.1.0]hexan-6-yl)methoxy)-4-(3,8-diazabicyclo[3.2.1]octan-3-yl)-6-chloro-8-fluoroquinazolin-7-yl)-4-methyl-5-(trifluoromethyl)pyridin-2-amine]"
4,50 to 100 nM,"Cc1cc(N)nc(-c2c(Cl)cc3c(N4CC5CCC(C4)N5)nc(OCC4(C)CCOCC4)nc3c2F)c1C(F)(F)F [Example E202, 6-(4-(3,8-diazabicyclo[3.2.1]octan-3-yl)-6-chloro-8-fluoro-2-((4-methyltetrahydro-2H-pyran-4-yl)methoxy)quinazolin-7-yl)-4-methyl-5-(trifluoromethyl)pyridin-2-amine]"
5,50 to 100 nM,"CC(=O)N1CCCC(COc2nc(N3CC4CCC(C3)N4)c3cc(Cl)c(-c4nc(N)cc(C)c4C(F)(F)F)c(F)c3n2)C1 (stereo not shown) [Example E234, 1-(3-(((7-(6-amino-4-methyl-3-(trifluoromethyl)pyridine-2-yl)-4-(3,8-diazabicyclo[3.2.1]octan-3-yl)-6-chloro-8-fluoroquinazolin-2-yl)oxy)methyl)piperidin-1-yl)ethan-1-one]"
6,< 50 nM,Nc1nc2c(-c3c(C(F)(F)F)cc4c(N5CC6CCC(C5)N6)nc(OCCCC5COC5)nc4c3F)ccc(F)c2s1 [Example E161]
7,< 50 nM,"CC(=O)N1CC(COc2nc(N3CC4CCC(C3)N4)c3cc(Cl)c(-c4nc(N)cc(C)c4C(F)(F)F)c(F)c3n2)C1 [Example E226, 1-(3-(((7-(6-amino-4-methyl-3-(trifluoromethyl)pyridin-2-yl)-4-(3,8-diazabicyclo[3.2.1]octan-3-yl)-6-chloro-8-fluoroquinazolin-2-yl)oxy)methyl)azetidin-1-yl)ethan-1-one]"
8,< 50 nM,"CC(=O)N1CC(COc2nc(N3CC4CCC(C3)N4)c3cc(C(F)(F)F)c(-c4ccc(F)c5sc(N)nc45)c(F)c3n2)C1 [Example E164, 1-(3-(((7-(2-amino-7-fluorobenzo[d]thiazol-4-yl)-4-(3,8-diazabicyclo[3.2.1]octan-3-yl)-8-fluoro-6-(trifluoromethyl)quinazolin-2-yl)oxy)methyl)azetidin-1-yl)ethan-1-one]"
9,< 50 nM,"CC(=O)N1CCC(COc2nc(N3CC4CCC(C3)N4)c3cc(Cl)c(-c4nc(N)cc(C)c4C(F)(F)F)c(F)c3n2)C1 (stereo not shown) [Example E232, 1-(3-(((7-(6-amino-4-methyl-3-(trifluoromethyl)pyridin-2-yl)-4-(3,8-diazabicyclo[3.2.1]octan-3-yl)-6-chloro-8-fluoroquinazolin-2-yl)oxy)methyl)pyrrolidin-1-yl)ethan-1-one]"
10,< 50 nM,"Cc1cc(N)nc(-c2c(Cl)cc3c(N4CC5CCC(C4)N5)nc(OCC45CCC(CC4)OC5)nc3c2F)c1C(F)(F)F [Example E229, 6-(2-((2-oxabicyclo[2.2.2]octan-4-yl)methoxy)-4-(3,8-diazabicyclo[3.2.1]octan-3-yl)-6-chloro-8-fluoroquinazolin-7-yl)-4-methyl-5-(trifluoromethyl)pyridin-2-amine]"
11,< 50 nM,"Cc1cc(N)nc(-c2c(Cl)cc3c(N4CC5CCC(C4)N5)nc(OCC4(CO)CCOC4)nc3c2F)c1C(F)(F)F (stereo not shown) [Example E230, (3-(((7-(6-amino-4-methyl-3-(trifluoromethyl)pyridin-2-yl)-4-(3,8-diazabicyclo[3.2.1]octan-3-yl)-6-chloro-8-fluoroquinazolin-2-yl)oxy)methyl)tetrahydrofuran-3-yl)methanol]"
